Data: the NIST ThermoML archive (doi:10.1016/j.jct.2005.11.003)

What was measured:
[1] = xn = mol fraction of the nth substance listed; conditions: 298.15 K, 101 kPa, Liquid
[2] = excess molar enthalpy (molar enthalpy of mixing); xn = mol fraction of the nth substance listed; conditions: 298.15 K, 101 kPa, Liquid

ClCCCl [1,2-dichloroethane] + CCCCOC(C)=O
[1]
Conditions	mass density [kg/m3]
x2 = 0.0359	1223.55
x2 = 0.0733	1201.71
x2 = 0.1139	1178.94
x2 = 0.1559	1156.86
x2 = 0.1988	1135.53
x2 = 0.2456	1113.51
x2 = 0.2953	1091.52
x2 = 0.3469	1070.08
x2 = 0.4021	1048.45
x2 = 0.4599	1027.18
x2 = 0.5233	1005.31
x2 = 0.5883	984.3
x2 = 0.6585	963
x2 = 0.7344	941.52
x2 = 0.8173	919.59
x2 = 0.9013	898.96

ClCCCCl [1,3-dichloropropane] + CCCCOC(=O)CC
[1]
Conditions	mass density [kg/m3]
x2 = 0.0407	1159.66
x2 = 0.1229	1123.34
x2 = 0.2119	1087.43
x2 = 0.2612	1068.85
x2 = 0.3653	1032.69
x2 = 0.4229	1014.17
x2 = 0.4801	996.73
x2 = 0.5422	978.78
x2 = 0.6802	942.1
x2 = 0.7534	924.3
x2 = 0.9139	888.6

ClCCCCl [1,3-dichloropropane] + CCCCOC(C)=O
[1]
Conditions	mass density [kg/m3]
x2 = 0.046	1159.83
x2 = 0.0904	1142.04
x2 = 0.1361	1124.29
x2 = 0.1839	1106.48
x2 = 0.2336	1088.53
x2 = 0.2841	1070.96
x2 = 0.3935	1035.06
x2 = 0.5106	999.49
x2 = 0.6371	964.06
x2 = 0.7043	946.37
x2 = 0.7737	928.82
x2 = 0.8467	911.1
x2 = 0.923	893.45

ClCCCCl [1,3-dichloropropane] + CCCCOC=O
Conditions	excess molar enthalpy [kJ/mol]	mass density [kg/m3]
[1], x2 = 0.0501	–	1161.72
[1], x2 = 0.101	–	1144.33
[1], x2 = 0.1527	–	1127.13
[1], x2 = 0.2078	–	1109.19
[1], x2 = 0.2601	–	1092.54
[1], x2 = 0.3145	–	1075.53
[1], x2 = 0.3712	–	1058.26
[1], x2 = 0.487	–	1024.07
[1], x2 = 0.6083	–	989.86
[1], x2 = 0.6701	–	973.02
[1], x2 = 0.7342	–	955.9
[1], x2 = 0.7984	–	939.11
[1], x2 = 0.8657	–	921.98
[1], x2 = 0.9315	–	905.54
[2], x2 = 0.046	0.0124	–
[2], x2 = 0.0992	0.0176	–
[2], x2 = 0.1566	0.0147	–
[2], x2 = 0.2391	0.0064	–
[2], x2 = 0.2953	-0.0041	–
[2], x2 = 0.3467	-0.0164	–
[2], x2 = 0.3972	-0.0344	–
[2], x2 = 0.4442	-0.0544	–
[2], x2 = 0.4874	-0.073	–
[2], x2 = 0.5293	-0.0858	–
[2], x2 = 0.5696	-0.0893	–
[2], x2 = 0.6134	-0.0916	–
[2], x2 = 0.6636	-0.0909	–
[2], x2 = 0.7143	-0.0893	–
[2], x2 = 0.7798	-0.0804	–
[2], x2 = 0.8596	-0.0594	–
[2], x2 = 0.9334	-0.0327	–

ClCCCCCl [1,4-dichlorobutane] + CCCCOC(=O)CC
[1]
Conditions	mass density [kg/m3]
x2 = 0.0475	1117.36
x2 = 0.0925	1102.34
x2 = 0.1874	1072.01
x2 = 0.239	1056.26
x2 = 0.29	1041.21
x2 = 0.3443	1025.65
x2 = 0.4006	1010.07
x2 = 0.5171	979.4
x2 = 0.5798	963.71
x2 = 0.6418	948.74
x2 = 0.7075	933.4
x2 = 0.8474	902.46
x2 = 0.8829	894.96
x2 = 0.9206	887.11
x2 = 0.9575	879.61

ClCCCCCl [1,4-dichlorobutane] + CCCCOC(C)=O
[1]
Conditions	mass density [kg/m3]
x2 = 0.0529	1117.81
x2 = 0.1035	1102.8
x2 = 0.1569	1087.25
x2 = 0.2092	1072.35
x2 = 0.2638	1057.04
x2 = 0.3207	1041.46
x2 = 0.3754	1026.74
x2 = 0.4326	1011.67
x2 = 0.4906	996.66
x2 = 0.5505	981.49
x2 = 0.6125	966.12
x2 = 0.6735	951.29
x2 = 0.7365	936.28
x2 = 0.8011	921.17
x2 = 0.8692	905.6
x2 = 0.9352	890.8

ClCCCCCl [1,4-dichlorobutane] + CCCCOC=O
Conditions	excess molar enthalpy [kJ/mol]	mass density [kg/m3]
[1], x2 = 0.0582	–	1119.16
[1], x2 = 0.1167	–	1104.56
[1], x2 = 0.1724	–	1090.7
[1], x2 = 0.2316	–	1075.99
[1], x2 = 0.286	–	1062.54
[1], x2 = 0.345	–	1047.97
[1], x2 = 0.4055	–	1033.06
[1], x2 = 0.522	–	1004.48
[1], x2 = 0.5808	–	990.11
[1], x2 = 0.6408	–	975.5
[1], x2 = 0.6992	–	961.32
[1], x2 = 0.76	–	946.59
[1], x2 = 0.8183	–	932.5
[1], x2 = 0.8774	–	918.24
[1], x2 = 0.9363	–	904.07
[2], x2 = 0.049	0.0288	–
[2], x2 = 0.1112	0.0469	–
[2], x2 = 0.1816	0.0572	–
[2], x2 = 0.2472	0.0633	–
[2], x2 = 0.3099	0.0576	–
[2], x2 = 0.3701	0.0463	–
[2], x2 = 0.4257	0.0328	–
[2], x2 = 0.4725	0.0153	–
[2], x2 = 0.5121	0.0003	–
[2], x2 = 0.5471	-0.0099	–
[2], x2 = 0.5819	-0.0217	–
[2], x2 = 0.6245	-0.0346	–
[2], x2 = 0.6718	-0.0435	–
[2], x2 = 0.7351	-0.0513	–
[2], x2 = 0.8039	-0.045	–
[2], x2 = 0.8728	-0.0337	–
[2], x2 = 0.9412	-0.0176	–

ClCCCCCCl [1,5-dichloropentane] + CCCCOC(=O)CC
[1]
Conditions	mass density [kg/m3]
x2 = 0.0528	1081.66
x2 = 0.1047	1068.55
x2 = 0.1575	1055.43
x2 = 0.2116	1042.24
x2 = 0.3217	1016.04
x2 = 0.3799	1002.5
x2 = 0.4359	989.71
x2 = 0.5529	963.57
x2 = 0.6167	949.63
x2 = 0.6773	936.67
x2 = 0.7411	923.24
x2 = 0.8045	910.15
x2 = 0.8667	897.51
x2 = 0.9333	884.23
